Experiments:
C. elegans = test: Lifespan extension of nematodes (C. elegans); type: in vivo; conditions: 50 micromolar; for Lifespan extension (%): Table 2, versus untreated controls; for Lifespan %: table of scaffold drawing 36, mean lifespan versus control
Experimental: Nematodes (C. elegans) were administered tri-phenyl telomerase-activating compounds presented in the following tables, and telomerase activity and/or expression was measured in terms of nematode lifespan extension. Nematodes were grown with the activators at 50 micromolar concentration, and the mean, maximum and half-life for Compound 68 and Compound 77, two representative molecules, was measured versus that of the control (FIG. 8). Values represent mean lifespan.
Survival of the C. elegans, a nematode that normally survives for 12-14 days, represents an acceptable model for studying life extension. Nematodes were administered tri-phenyl telomerase-activating compounds and their effect on the nematode lifespan extension was determined. Nematodes were grown with the activators at a concentration of 50 micromolar, and mean, maximum and half-life were measured in comparison with untreated controls. Lifespan increased by 13-43% (Table 2), and the median lifespan increased approximately 2-fold (from 12 days to 22 days, as shown in FIG. 8).

Human keratinocytes = test: Proliferation and survival of senescent human keratinocytes; type: cell-based; conditions: fifth passage keratinocytes
Experimental: Human keratinocytes which had lost their ability to proliferate (in their fifth passage) were obtained from a local skin bank and treated with Compound 68 for 24 h. Cell viability, cell number and morphology was examined.

telomerase [1] = test: Telomerase expression in rat brain cortex after subcutaneous injection (immunofluorescence); type: in vivo
From the text: The effect of compounds of the present invention injected subcutaneously into female rats and adult male mice on telomerase expression in various regions of the brain was examined.

telomerase [2] = test: Telomerase expression in mouse brain regions after subcutaneous injection (immunofluorescence); type: in vivo; conditions: three-month-old male mice, 24 h
Experimental: Compound 79 was injected subcutaneously into three-month-old male mice. The mice were sacrificed 24 h later and the cortex, cerebellum, hippocampus, hypothalamus, brain stem and olfactory bulb isolated and subjected to immunofluorescence. […] This activation appeared to be specific for certain neuronal cells.

mouse cerebellum = test: Prevention of glutamate-induced apoptosis in mouse cerebellum slices; type: in vivo; conditions: 6 mg/kg, 24 h; slices treated with glutamate 30 min
Experimental: The ability of compounds of the present invention to prevent glutamate-induced apoptosis in mouse cerebellum was examined. Mice were injected with 6 mg/kg of Compound 79 or with vehicle only. Mice were sacrificed 24 h after treatment and their brains were removed. Cerebellum slices were prepared and subjected to glutamate treatment at various concentrations for 30 min. Sections were stained with propidium iodide and the number of apoptotic cells was counted and calculated using specific software (Jimage). Prevention of apoptosis in mice treated with compounds of the present invention was calculated as a percentage relative to control mice (FIG. 13). This supports a role for compounds of the present invention in treating seizures, stroke, Alzheimer's disease, epilepsy, schizophrenia, and alcohol and opiate addition.

telomerase [3] = test: Telomerase expression in mouse heart protein extracts; type: in vivo; conditions: after injection, one mouse
Experimental: The activation of telomerase by compounds of the present invention in heart protein extracts derived from one mouse was measured (FIG. 14). […] This supports a role for compounds of the present invention in treating infarct, ischemia, myocarditis, etc.

telomerase [4] = molecular target: T1, telomerase (Homo sapiens, UniProt O14746); test: Real time PCR quantification of telomerase activity in hMSC nuclear extracts; type: cell-based; parameters: endogenous in cells; conditions: 250 nM
T1 sequence (O14746 whole entry): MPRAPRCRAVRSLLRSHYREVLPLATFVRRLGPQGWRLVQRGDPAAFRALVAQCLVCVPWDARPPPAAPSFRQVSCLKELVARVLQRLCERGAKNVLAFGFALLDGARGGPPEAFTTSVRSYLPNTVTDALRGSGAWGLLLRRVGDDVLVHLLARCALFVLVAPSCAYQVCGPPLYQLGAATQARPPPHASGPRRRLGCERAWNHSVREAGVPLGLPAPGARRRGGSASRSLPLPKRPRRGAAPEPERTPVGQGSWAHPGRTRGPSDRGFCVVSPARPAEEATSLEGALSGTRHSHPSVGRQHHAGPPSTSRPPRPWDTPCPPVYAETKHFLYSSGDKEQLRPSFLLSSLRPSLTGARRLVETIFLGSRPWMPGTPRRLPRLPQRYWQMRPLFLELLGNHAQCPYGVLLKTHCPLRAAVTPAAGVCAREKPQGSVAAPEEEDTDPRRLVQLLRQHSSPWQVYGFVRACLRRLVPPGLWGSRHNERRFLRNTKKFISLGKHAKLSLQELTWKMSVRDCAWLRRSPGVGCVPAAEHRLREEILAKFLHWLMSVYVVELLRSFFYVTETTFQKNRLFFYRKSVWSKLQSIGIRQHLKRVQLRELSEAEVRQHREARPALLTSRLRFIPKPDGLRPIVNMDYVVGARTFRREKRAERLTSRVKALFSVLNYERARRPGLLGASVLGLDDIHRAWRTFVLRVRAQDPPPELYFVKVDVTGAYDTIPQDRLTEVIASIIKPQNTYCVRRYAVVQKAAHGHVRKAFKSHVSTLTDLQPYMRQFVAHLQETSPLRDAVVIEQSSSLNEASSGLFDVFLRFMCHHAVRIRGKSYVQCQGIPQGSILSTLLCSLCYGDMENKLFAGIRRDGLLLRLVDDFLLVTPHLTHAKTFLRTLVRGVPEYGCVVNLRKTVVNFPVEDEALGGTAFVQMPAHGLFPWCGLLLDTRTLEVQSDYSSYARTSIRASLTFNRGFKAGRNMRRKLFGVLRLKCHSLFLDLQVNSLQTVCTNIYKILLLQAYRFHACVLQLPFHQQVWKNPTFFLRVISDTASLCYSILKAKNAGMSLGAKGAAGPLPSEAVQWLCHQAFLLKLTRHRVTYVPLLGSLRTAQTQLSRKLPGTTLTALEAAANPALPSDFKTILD
Experimental: FIG. 5: Activation of telomerase expression in hMSC by compounds of the present invention. A.—hMSC were treated with 250 nM of Compounds 79, 77 and 68 for 6 hours. Immunofluorescence was performed with anti-hTERT antibody (red) and the nucleus was stained with DAPI (blue). B. hMSC treated with compound 79 for 6 and 24 h. Telomerase activity was measured by real time PCR using a quantitative telomerase detection kit (Allied Biotech Inc., USA).
The possibility that compounds of the present invention enhance hMSC survival and proliferation by activation of TERT was examined by culturing hMSC (p 3) in a tissue culture chamber slide at 17×10^3 cells/well for 60 h. Compounds of the present invention were added for 6 h with fresh medium. Immunofluorescence with anti-hTERT antibody (first antibody) and cy3 fluorescent secondary antibody was carried out. The nucleus was stained with DAPI. Compounds of the present invention activated telomerase expression in hMSC (FIG. 5). […] Degree of activation of telomerase expression was Compound 68>79>77. Quantification of telomerase activity in hMSC was performed by Real time PCR (Quantification telomerase detection kit) in nuclear extracts derived from hMSC treated with compound 79 (250 nM) for 6 or 24 h. Compound 79 enhanced telomerase activity in hMSC by 12- or 6-fold in a time-dependent manner (FIG. 5B).

telomerase [5] = molecular target: T1, telomerase; test: Telomerase activity in RPE cells (quantitative telomerase detection kit, real time PCR); type: cell-based; parameters: endogenous in cells; host or cells: human retinal pigmented epithelial (RPE) cells; conditions: FIG. 7B
From the text: FIG. 7: A. The effect of compounds of the present invention on human retinal pigmented epithelial cells under oxidative stress. B. The effect of compounds on telomerase activity in RPE cells (measured by a quantitative telomerase detection kit-real time PCR).
Chronic exposure of human retinal pigmented epithelial (RPE) cells to oxidative stress predisposes them to the development of age-related macular degeneration (AMD). Human RPE cells were exposed to oxidative stress by treatment with H2O2 (1 mM) for 24 hours, and H2O2 (0.5 mM) for another 24 hours. The cells were then treated daily for two days with the indicated compounds in the absence of H2O2. Increased cell growth was observed as a consequence of treatment with the compounds (FIG. 7A). Telomerase activity was enhanced in RPE cells treated with compounds 68 and 79 by 30- and 50-fold, respectively (FIG. 7B).

[6] = tested on: murine B-cell leukemia lymphoma (BCL1) cells; test: BCL1 tumorigenicity in (BALB/c×C57BL/6)F1 mice; type: in vivo, mouse; conditions: mice inoculated with 10^5 BCL1 cells; Compound 77 10 mM
Experimental: (BALB/c×C57BL/6)F1 mice were inoculated with 10^5 murine B-cell leukemia lymphoma (BCL1) cells. Splenomegaly and lymphocytosis (leukemia) developed in all controls and in mice treated with telomerase-activating compounds (40 or 80 mg/kg).

[7] = Graft-versus-host disease (GVHD) induced by C57BL/6 spleen cells; type: in vivo, mouse; conditions: F1 mice inoculated with 30×10^6 C57BL/6 spleen cells
From the text: (BALB/c×C57BL/6)F1 mice were inoculated with 30×10^6C57BL/6 spleen cells for induction of GVHD.

SMILES	Lifespan extension (%) (C. elegans)	Lifespan % (C. elegans)	cell survival effect on keratinocytes (comparison) (Human keratinocytes)	expression of telomerase in the brain cortex (telomerase [1])	telomerase expression in motor-neuronal cells of the brain stem (telomerase [2])	telomerase expression in the various brain regions (telomerase [2])	glutamate-induced apoptosis in mouse cerebellum (mouse cerebellum)	heart telomerase expression (telomerase [3])	enhancement of telomerase activity in hMSC (telomerase [4]; 6 h)	enhancement of telomerase activity in hMSC (telomerase [4]; 24 h)	enhancement of telomerase activity in RPE cells (telomerase [5])	Survival Median (range) [6]	signs of acute GVHD (weight loss) versus untreated controls [7]
CCOCc1cc(C(C)(c2cc(COCC)c(O)c(COCC)c2)c2cc(COCC)c(O)c(COCC)c2)cc(COCC)c1O [Compound 79]	16%	16%	better cell survival effect than Compound 68	significantly activated	increased telomerase expression	significantly and dramatically increased	Prevention of glutamate-induced apoptosis	significant increase	12 fold	6 fold	50 fold		
CN(C)Cc1cc(C(C)(c2cc(CN(C)C)c(O)c(CN(C)C)c2)c2cc(CN(C)C)c(O)c(CN(C)C)c2)cc(CN(C)C)c1O [Compound 77]	43%	43%		significantly activated								26 (22-41)	more severe signs of acute GVHD

From US9670139B2, “Telomerase activating compounds and methods of use thereof” (BEN-GURION UNIVERSITY OF THE NEGEV RESEARCH AND DEVELOPMENT …, priority 2007, dated 2017)
